In patent US20070197658A1, “Polyamines and their use as antibacterial and sensitizing agents” (priority 2006, published 2007):
Several values for one entry are separate records, joined by “and”; a condition that tells them apart may be missing. Equal entries are not always repeated. Structures can show the parent of a compound that is named as a salt. Where two headings read alike, the source gives them in different places. Bridge positions count the residues as written; N and C are the ends. Square brackets hold non-standard residues; d marks the D form. Peptide text beside a SMILES is read from it. Dab = NCC[C@H](N)C(=O)O

Assays:
[1] = tested on: E. coli ATCC 9637; assay: microbe, parasite or virus in culture
Method: (§1) An equal volume of a suspension of either E. coli ATCC 9637 (FIG. 6A) or S. aureus ATCC 13709 (FIG. 6B) in 2× Mueller-Hinton broth was added using an automated liquid dispensing system to a 384 well plate, and bacterial growth was measured by absorptimetry as described in Materials and Methods.
(§2) In this example, E. coli strain 9637 and S. aureus strain 13709 were procured from ATCC (Manassas, Va.). For IM permeability assays, E. coli ML-35 (ATCC 43827), a lactose permease-deficient strain with constitutive cytoplasmic β-galactosidase activity was used (26). Calcium chloride transformation of E. coli ML-35 was performed using the plasmid vector pBR322 (6), encoding tetracycline and ampicillin resistance genes (Promega, Madison, Wis.). The transformed strain, E. coli ML-35p, selected by ampicillin resistance, was utilized for the OM permeabilization assay. E. coli ML-35p was maintained on trypticase soy agar plates with 50 μg/ml of ampicillin.
(§3) Minimum inhibitory concentrations of the acylpolyamines were determined by broth microdilution method (1) as per NCCLS guidelines. Mid-log phase Mueller-Hinton broth (MHB; non-cation supplemented) cultures of organisms (40 μl; OD600nm adjusted to 0.5 AU, and diluted ten-fold) were added to equal volumes of two-fold serially diluted acylpolyamines in a 384-well microtiter plate with the help of a Biotek Precision 2000 automated microplate pipetting system. The MICs of rifampicin, polymyxin B (PMB), polymyxin B nonapeptide (PMBN), naphthylacetyl spermine trihydrochloride and methoctramine tetrahydrochloride (Sigma, St. Louis, Mo.) were included as reference compounds for comparison of activity. The microtiter plates were sealed and incubated overnight at 37° C. The plates were read at an absorbance of 600 nm. The lowest concentration of an agent inhibiting growth of the organisms was recorded as the MIC.

[2] = tested on: S. aureus ATCC 13709; assay: microbe, parasite or virus in culture
Method: as §1, §2, §3

[3] = tested on: E. coli W3110; conditions: cited from earlier work
[4] = tested on: E. coli ATCC 9637; assay: Effect of acylpolyamines on MIC of rifampicin (sensitization); type: cell-based, Escherichia coli; conditions: for Sensitization to Rifampin: E. coli strain 9637 preincubated with 10 μM of compound, MIC of rifampicin
Method: E. coli ATCC 9637 was seeded in MH broth in chequerboard format in a 384-well plate containing a constant concentration of compound and varying doses of rifampicin. Bacterial growth was monitored by turbidimetry at 600 nm. PMBN and melittin were used as positive controls. Wells containing no test-compound served as negative control. […] Fold sensitization was calculated as MICRifampicin alone/MICRifampicin+10μM Compound.
Perturbation of the outer membrane permeability barrier greatly sensitizes Gram negative organisms to otherwise impermeable hydrophobic solutes, rifampicin being a classic example To determine the effect of acylpolyamines on the MIC of hydrophobic antibiotic, rifampicin, E. coli strain 9637 was used. Overnight cultures of E. coli grown in MHB preincubated with 10 μM of acylpolyamines were added to serially diluted rifampicin in a 384-well microtiter plate. After incubation at 37° C. overnight, the MIC was determined. Controls included PMBN and melittin (positive) and rifampicin alone (negative). All experiments were run in triplicate.

[5] = tested on: E. coli ML-35p (OM) / E. coli ML-35 (IM); type: cell-based, Escherichia coli; conditions: nitrocefin and ONPG hydrolysis
Method: OM permeabilizing activity was determined using E. coli ML-35p (parent i^− z^+ y^− ATCC 43827 transformed with pBR322 vector encoding periplasmic β-lactamase); the leakage of periplasmic β-lactamase activity was quantified using nitrocefin as a chromogenic substrate. IM permeabilizing activity was determined using E. coli ML-35 using o-nitrophenyl-β-D-galactopyranoside as the substrate to determine the β-galactosidase activity. In all experiments, PMB, PMBN, and melittin were used as reference compounds.
Nitrocefin (Calbiochem, San Diego, Calif.) was used for the determination of periplasmic β-lactamase activity since PADAC has been reported to be frequently insensitive to β-lactamase activity in clinically relevant strains of Staphylococcus. […] Harvested mid-log phase cultures of E. coli ML-35p (OD600nm adjusted to 0.5 AU) grown in trypticase soy broth were washed thrice with normal saline (0.9%). Nitrocefin was added to a final concentration of 50 μg/ml to the washed bacterial suspension, which was then added to the serially diluted compounds in a 384-well microtiter plate as described earlier. […] After various times of incubation at 37° C., β-lactamase activity was measured spectrophotometrically at 486 nm using an automated Spectramax M2 instrument (Molecular Devices, Sunnyvale, Calif.).
The IM permeability was measured using o-nitrophenyl-β-D-galactopyranoside (“ONPG”; Sigma, St. Louis, Mo.) as the substrate to determine the β-galactosidase activity. […] Washed cultures of E coli ML-35 mixed with 1.5 mM of ONPG in normal saline (0.9%) were added to serially diluted compounds in a 384-well microtiter plate. PMBN and melittin were used as the controls. The production of o-nitrophenol was quantified absorptimetrically at 420 nm after an incubation period of 1 hour at 37° C.
OM and IM permeability were determined respectively from dose-response curves of nitrocefin and ONPG hydrolysis rates as described in Lehrer et al., Concurrent assessment of inner and outer membrane permeabilization and bacteriolysis in E. coli by multiple-wavelength spectrophotometry, J. Immunol.

[6] = tested on: human erythrocytes; conditions: for hemolytic activity in the presence of human serum albumin: physiological concentrations (~650 μM) of human serum albumin
Method: Melittin was used as a positive control.
Erythrocyte damage was measured using two different techniques. In the first, hemolysis was quantified using extremely diluted, aged human whole blood such that the effects of the compounds binding to plasma proteins would be negligible, and the hemolytic activity would be magnified because of increased osmotic fragility of the erythrocytes as a consequence of depleted Na^+ K^+ ATPase activity. […] Dilute erythrocyte suspensions were prepared by diluting one-week-old whole blood obtained by venipuncture from healthy human volunteers 1:1000 in isotonic (0.9 g/100 ml) saline solution to which was added graded doses of compound. […] The samples were therefore examined with a Beckman-Coulter Vi-Cell™ Cell Viability Analyzer (Beckman-Coulter, Hialeah, Fla.). This instrument implements an automated intravital trypan blue exclusion method using real-time automated video microscopy. Measurement parameters for erythrocytes were gated appropriately on control erythrocytes to specify thresholds of cell recognition and viability. Data on total number of cells/ml and viable cells/ml were collected through 50 captured images per sample with a counting accuracy of ±3%. In order to examine the effect of plasma proteins on the surface activity, some of the experiments were repeated in the presence of near-physiological concentrations of human serum albumin. […] The second method, consequently, was designed to examine the effects of the compounds on whole blood. […] After incubation at 37° C. for 30 min, the plates were centrifuged at 3000 RPM for 10 min, 80 μl of supernatants transferred to a fresh plate, and the amount of free hemoglobin released into the supernatant was quantified using absorptimetry at 570 nm.
The hemolysis induced by the compounds was quantified using an extremely dilute suspension of washed, aged human erythrocytes under protein-free conditions (isotonic saline). […]

[7] = tested on: CF-1 mice; conditions: preliminary
Method: Detailed biophysical studies on the characterization of the binding site on albumin, stoichiometry, and dependence of binding affinity on mono-versus bis-acylation and acyl chain length will be published elsewhere.
Clinical signs of acute toxicity were monitored for 48 h following a single injection. In subacute studies, 100 μg of 4e was injected daily in the subcutaneous tissue of the flank region, the sites being alternated every day, for a duration of 15 days. The animals were monitored daily for signs of local irritation, weight loss, and food consumption.

[8] = 500 μM in 50 mM Tris buffer, pH 7.4, 5% DMSO, 25° C.
Method: Charged, amphipathic molecules are surface-active, and can be cytolytic to mammalian cells. […] Samples were at 500 μM concentration in 50 mM Tris buffer, pH 7.4 containing 5% DMSO. The instrument was calibrated with water at 25° C. (72 mN/m) and surface tension values were recorded over a range of bubble surface ages from 100 to 1500 ms at 25° C.

[9] = E. coli ATCC 9637, Mueller-Hinton broth, overnight 37° C.
[10] = S. aureus ATCC 13709, Mueller-Hinton broth, overnight 37° C.
[11] = 10 μM compound, E. coli ATCC 9637

Row | Molecule | MIC [1, 9] | MIC [2, 10] | Sensitization to Rifampin [4] | other results
1 | Cl.Cl.Cl.NCCCNCCCCNCCCNC(=O)Cc1cccc2ccccc12 [Naphthylacetylspermine, naphthylacetyl spermine trihydrochloride, reference compound] |  |  |  | MIC ([1]; E. coli ATCC 9637, Mueller-Hinton broth, overnight 37° C., listed as naphthylacetylspermine, trihydrochloride): 1250 µM; MIC ([1]; E. coli ATCC 9637, Mueller-Hinton broth, overnight 37° C., trihydrochloride): 1250 μM and 599.8 μg/ml; MIC ([2]; S. aureus ATCC 13709, Mueller-Hinton broth, overnight 37° C., trihydrochloride): 1250 μM and 599.8 μg/ml; MIC reported by Yasuda et al. ([3]; trihydrochloride): > 267 μM and > 128 mg/l
2 | CCCCCCCCCCCCCCCCCCC(=O)NCCCNCCCNCCCCNCCCNCCCNC(=O)CCCCCCCCCCCCCCCCCC.O=C(O)C(F)(F)F.O=C(O)C(F)(F)F.O=C(O)C(F)(F)F.O=C(O)C(F)(F)F [Compound 8f] | 62.5 μM and 83.3 μg/ml | 125 μM and 166.7 μg/ml | 15.6 | 
3 | CCCCCCCCCCCCCCC(=O)NCCCNCCCNCCCCNCCCNCCCNC(=O)CCCCCCCCCCCCCC.O=C(O)C(F)(F)F.O=C(O)C(F)(F)F.O=C(O)C(F)(F)F.O=C(O)C(F)(F)F [Compound 8d] | 62.5 μM and 76.3 μg/ml | 250 μM and 305.3 μg/ml | 15.6 | 
4 | CCCCCCCCCCCCCCCCC(=O)NCCCNCCCNCCCCNCCCN.O=C(O)C(F)(F)F.O=C(O)C(F)(F)F.O=C(O)C(F)(F)F.O=C(O)C(F)(F)F [Compound 4f] | 62.5 μM and 60.4 μg/ml | 15.6 μM and 15.1 μg/ml | 15.6 | membrane-permeabilizing activity (OM and IM) [5]: highly membrane-active; hemolysis ([6]; at 1-5 μM, dilute aged human erythrocytes, protein-free isotonic saline): 100%; hemolytic activity in the presence of human serum albumin [6]: completely abrogated
5 | COc1ccccc1CNCCCCCCNCCCCCCCCNCCCCCCNCc1ccccc1OC [Methoctramine, methoctramine tetrahydrochloride, reference compound] | 312.5 µM |  |  | MIC ([1]; Escherichia coli, ATCC9637): 312 µM and 228 µg/mL; MIC ([2]; Staphylococcus aureus, ATCC13709): 156 µM and 114 µg/mL; MIC reported by Yasuda et al. [3]: 22 μM and 16 mg/l
6 | CCCCCCCCCCCCC(=O)NCCCNCCCNCCCCNCCCN.O=C(O)C(F)(F)F.O=C(O)C(F)(F)F.O=C(O)C(F)(F)F.O=C(O)C(F)(F)F [Compound 4d] | 31.25 μM and 28.9 μg/ml | 15.6 μM and 14.4 μg/ml | 62.5 | subacute toxicity ([7]; 100 μg/mouse, subcutaneously, for 15 days): not revealed any detectable toxicity; acute toxicity ([7]; up to 1 mg/mouse, one dose subcutaneously): not revealed any detectable toxicity
7 | CCCCCCCCCCCCCCCCCCC(=O)NCCCNCCCNCCCCNCCCN.O=C(O)C(F)(F)F.O=C(O)C(F)(F)F.O=C(O)C(F)(F)F.O=C(O)C(F)(F)F [Compound 4g] | 62.5 μM and 62.2 μg/ml | 15.6 μM and 15.5 μg/ml |  | membrane-permeabilizing activity (OM and IM) [5]: highly membrane-active; hemolytic activity in the presence of human serum albumin [6]: completely abrogated
8 | CCCCCCCCCCCCCCCCC(=O)NCCCNCCCNCCCCNCCCNCCCNC(=O)CCCCCCCCCCCCCCCC.O=C(O)C(F)(F)F.O=C(O)C(F)(F)F.O=C(O)C(F)(F)F.O=C(O)C(F)(F)F [Compound 8e] | 62.5 μM and 79.4 μg/ml | 250 μM and 319.3 μg/ml | 15.6 | 
9 | CCCCCCCCCC(=O)NCCCNCCCNCCCCNCCCN.O=C(O)C(F)(F)F.O=C(O)C(F)(F)F.O=C(O)C(F)(F)F.O=C(O)C(F)(F)F [Compound 4c] | 62.5 μM and 54.3 μg/ml | 62.5 μM and 54.3 μg/ml | 7.81 | 
10 | CC(C)C[C@@H]1NC(=O)[C@@H](Cc2ccccc2)NC(=O)[C@H](CCN)NC(=O)[C@@H](NC(=O)[C@H](CCN)NC(=O)[C@@H](N)[C@@H](C)O)CCNC(=O)[C@H]([C@@H](C)O)NC(=O)[C@H](CCN)NC(=O)[C@H](CCN)NC1=O [PMBN, polymyxin B nonapeptide, reference compound] (H-T[Dab][Dab][Dab][dF]L[Dab][Dab]T; lactam 3-C) | 250; (240.7) μg/ml | 500; (481.5) μg/ml |  | MIC ([1]; ATCC 9637): 250; (240.7) μM; MIC ([2]; ATCC 13709): 500; (481.5) μM; MIC of rifampicin in the presence of compound [4, 11]: 0.976 µg/mL; sensitization activity (MIC rifampicin alone / MIC rifampicin + 10 μM compound) [4, 11]: 16 fold
11 | Polymyxin B [PMB, reference compound] | 3.9 μM and 5.4 μg/ml | 125 μM and 173.2 μg/ml | 0.2 | 
12 | CCCCCCCCC(=O)NCCCNCCCNCCCCNCCCN.O=C(O)C(F)(F)F.O=C(O)C(F)(F)F.O=C(O)C(F)(F)F.O=C(O)C(F)(F)F [Compound 4b] | 62.5 μM and 53.4 μg/ml | 125 μM and 106.96 μg/ml | 7.81 | 
13 | CCCCCCCCCC(=O)NCCCNCCCNCCCCNCCCNCCCNC(=O)CCCCCCCCC.O=C(O)C(F)(F)F.O=C(O)C(F)(F)F.O=C(O)C(F)(F)F.O=C(O)C(F)(F)F [Compound 8b] |  |  | 0.00381 | surface activity [8]: considerably surface active; MIC in the presence of human serum albumin ([1]; E. coli, HSA 4.5 g/100 ml, 677 μM): 125 µM; attenuation of MIC by human serum albumin ([1]; E. coli, with vs without HSA 4.5 g/100 ml): four-fold; MIC in the presence of human serum albumin ([2]; S. aureus, HSA 4.5 g/100 ml, 677 μM): 15.6 µM; attenuation of MIC by human serum albumin ([2]; S. aureus, with vs without HSA 4.5 g/100 ml): four-fold; sensitization activity (MIC rifampicin alone / MIC rifampicin + 10 μM compound) [4, 11]: 4096 fold
14 | CO[C@H]1/C=C/O[C@@]2(C)Oc3c(C)c(O)c4c(O)c(c(/C=N/N5CCN(C)CC5)c(O)c4c3C2=O)NC(=O)/C(C)=C\C=C\[C@H](C)[C@H](O)[C@@H](C)[C@@H](O)[C@@H](C)[C@H](OC(C)=O)[C@@H]1C [rifampicin, reference compound] |  |  |  | MIC ([4]; Escherichia coli, ATCC9637, E. coli ATCC 9637, no test compound, read-out: MIC of rifampicin alone): 15.6 µg/mL
15 | CC(=O)NCCCNCCCNCCCCNCCCN.O=C(O)C(F)(F)F.O=C(O)C(F)(F)F.O=C(O)C(F)(F)F.O=C(O)C(F)(F)F [Compound 4a] | 62.5 μM and 47.3 μg/ml |  | 31.25 | 
